Experimental data from patent publication US7745636B2, “Hepatitis C virus inhibitors” (Bristol-Myers Squibb Company, priority 2006, dated 2010).

tested on: HCV 1b-377-neo replicon cells; experiment: HCV Replicon assay, HCV 1b-377-neo replicon cells; format: cell-based, HCV 1b genotype; settings: Hepatitis C virus, Table 2, read-out: Range (EC50 against HCV 1b)

SMILES | EC50
COC(=O)N[C@@H](C)C(=O)N1CCC[C@H]1c1ncc(-c2cnc(-c3ccc(-c4[nH]c([C@@H]5CCCN5C(=O)[C@H](C)NC(=O)OC)nc4C(F)(F)F)cc3)nc2)[nH]1 [Example J50, methyl ((1S)-2-((2S)-2-(5-(4-(5-(2-((2S)-1-(N-(methoxycarbonyl)-L-alanyl)-2-pyrrolidinyl)-1H-imidazol-5-yl)-2-pyrimidinyl)phenyl)-4-(trifluoromethyl)-1H-imidazol-2-yl)-1-pyrrolidinyl)-1-methyl-2-oxoethyl)carbamate] | 0.001 to 0.999 nM
COC(=O)N[C@@H](C(=O)N[C@@H](C)c1ncc(-c2ccc(-c3ccc(-c4cnc([C@@H]5CCCN5C(=O)[C@H](NC(=O)OC)c5ccccc5)[nH]4)cc3)nc2)[nH]1)c1ccccc1 [Example 152j-22, methyl ((1R)-2-((2S)-2-(5-(4-(5-(2-((1S)-1-(((2R)-2-((methoxycarbonyl)amino)-2-phenylace-tyl)amino)eth-yl)-1H-imidazol-5-yl)-2-pyridinyl)phenyl)-1H-imidazol-2-yl)-1-pyrrolidinyl)-2-oxo-1-phenylethyl)carbamate] | 0.001 to 0.999 nM
O=C([C@H](O)c1ccccc1)N1CCC[C@H]1c1ncc(-c2ccc(-c3ccc(-c4cnc([C@@H]5CCCN5C(=O)[C@H](O)c5ccccc5)[nH]4)cn3)cc2)[nH]1 [Example 133, (1R)-2-((2S)-2-(5-(6-(4-(2-((2S)-1-((2R)-2-hydroxy-2-phenylacetyl)-2-pyrrolidinyl)-1H-imidazol-5-yl)phenyl)-3-pyridinyl)-1H-imidazol-2-yl)-1-pyrrolidinyl)-2-oxo-1-phenylethanol] | 1 to 99 nM
COC(=O)N[C@@H](C(=O)N1CCC[C@H]1c1ncc(-c2ccc(-c3cnc(-c4cnc([C@@H]5CCCN5C(=O)[C@H](NC(=O)OC)c5ccccc5)[nH]4)cn3)cc2)[nH]1)c1ccccc1 [Example 152j-8, methyl ((1R)-2-((2S)-2-(5-(5-(4-(2-((2S)-1-((2R)-2-((methoxycarbonyl)amino)-2-phenylacetyl)-2-pyrrolidinyl)-1H-imidazol-5-yl)phenyl)-2-pyrazinyl)-1H-imidazol-2-yl)-1-pyrrolidinyl)-2-oxo-1-phenylethyl)carbamate] | 0.001 to 0.999 nM
COC(=O)N[C@@H](C(=O)N(C)[C@@H](C)c1ncc(-c2ccc(-c3ccc(-c4cnc([C@@H]5CCCN5C(=O)[C@@H](c5ccccc5)N5CCCCC5)[nH]4)cc3)cc2)[nH]1)c1ccccc1 [Example 131.1-2, methyl((1R)-2-(methyl((1S)-1-(5-(4′-(2-((2S)-1-((2R)-2-phenyl-2-(1-piperidinyl)acetyl)-2-pyrrolidinyl)-1H-imidazol-5-yl)-4-biphenylyl)-1H-imidazol-2-yl)ethyl)amino)-2-oxo-1-phenylethyl)carbamate] | 0.001 to 0.999 nM
C[C@@H](c1ncc(-c2ccc(-c3ncc(-c4cnc([C@@H]5CCCN5C(=O)[C@@H](c5ccccc5)N(C)C)[nH]4)cn3)cc2)[nH]1)N(C)C(=O)[C@@H](c1ccccc1)N(C)C [Example 152j-20, (2R)-2-(dimethylamino)-N-((1S)-1-(5-(4-(5-(2-((2S)-1-((2R)-2-(dimethylamino)-2-phenylacetyl)-2-pyrrolidinyl)-1H-imidazol-5-yl)-2-pyrimidinyl)phenyl)-1H-imidaozl-2-yl)ethyl)-N-methyl-2-phenylacetamide] | 1 to 99 nM
COC(=O)N[C@@H](C(=O)N[C@@H](C)c1ncc(-c2cnc(-c3ccc(-c4cnc([C@@H]5CCCN5C(=O)[C@H](NC(=O)OC)c5ccccc5)[nH]4)cc3)nc2)[nH]1)c1ccccc1 [Example 152j-17, methyl ((1R)-2-((2S)-2-(5-(4-(5-(2-((1S)-1-(((2R)-2-((methoxycarbonyl)amino)-2-phenylace-tyl)amino)eth-yl)-1H-imidazol-5-yl)-2-pyrimidinyl)phenyl)-1H-imidazol-2-yl)-1-pyrrolidinyl)-2-oxo-1-phenylethyl)carbamate] | 0.001 to 0.999 nM
COC(=O)N[C@H](C(=O)N1CCC[C@H]1c1ncc(-c2ccc(-c3ccc(-c4cnc([C@@H]5CCCN5C(=O)[C@@H](NC(=O)OC)C(C)C)[nH]4)cc3CN(C)C)cc2)[nH]1)C(C)C [Example M120, methyl((1S)-1-(((2S)-2-(5-(2-((dimethylamino)methyl)-4′-(2-((2S)-1-((2S)-2-((methoxycarbonyl)amino)-3-methylbutanoyl)-2-pyrrolidinyl)-1H-imidazol-5-yl)-4-biphenylyl)-1H-imidazol-2-yl)-1-pyrrolidinyl)carbonyl)-2-methylpropyl)carbamate] | 100 to 999 nM
COC(=O)N[C@@H](C(=O)N[C@@H](C)c1ncc(-c2ccc(-c3ncc(-c4cnc([C@@H]5CCCN5C(=O)[C@@H](c5ccccc5)N5CCCCC5)[nH]4)cn3)cc2)[nH]1)c1ccccc1 [Example 152l-2, methyl ((1R)-2-oxo-1-phenyl-2-(((1S)-1-(4-(4-(5-(2-((2S)-1-((2R)-2-phenyl-2-(1-piperidinyl)acetyl)-2-pyrrolidinyl)-1H-imidazol-5-yl)-2-pyrimidinyl)phenyl)-1H-imidazol-2-yl)ethyl)amino)ethyl) carbamate] | 0.001 to 0.999 nM
COC(=O)N[C@@H](C(=O)N(C)[C@@H](C)c1ncc(-c2ccc(-c3ccc(-c4cnc([C@@H]5CCCN5C(=O)[C@@H](c5ccccc5)N(C)C)[nH]4)cc3)cc2)[nH]1)c1ccccc1 [Example 131.1-1, methyl((1R)-2-(((1S)-1-(5-(4′-(2-((2S)-1-((2R)-2-(dimethylamino)-2-phenylacetyl)-2-pyrrolidinyl)-1H-imidazol-5-yl)-4-biphenylyl)-1H-imidazol-2-yl)ethyl) (methyl)amino)-2-oxo-1-phenylethyl)carbamate] | 0.001 to 0.999 nM
COC(=O)N[C@@H](C(=O)N1CCC[C@H]1c1ncc(-c2ccc(-c3ccc(-c4cnc([C@@H]5CCCN5C(=O)Cc5ccccc5)[nH]4)cc3)cc2)[nH]1)c1ccccc1 [Example 28, methyl((1R)-2-oxo-1-phenyl-2-((2S)-2-(5-(4′-(2-((2S)-1-(phenylacetyl)-2-pyrrolidinyl)-1H-imidazol-5-yl)-4-biphenylyl)-1H-imidazol-2-yl)-1-pyrrolidinyl)ethyl)carbamate] | 1 to 99 nM
CN(C)[C@@H](C(=O)N1CCC[C@H]1c1ncc(-c2ccc(-c3ccc(-c4cnc([C@@H]5CCCN5C(=O)[C@@H](c5ccccc5)N(C)C)[nH]4)nn3)cc2)[nH]1)c1ccccc1 [Example 152j-9, (1R)-2-((2S)-2-(5-(6-(4-(2-((2S)-1-((2R)-2-(dimethylamino)-2-phenylacetyl)-2-pyrrolidinyl)-1H-imidazol-5-yl)phenyl)-3-pyridazinyl)-1H-imidazol-2-yl)-1-pyrrolidinyl)-N,N-dimethyl-2-oxo-1-phenylethanamine] | 1 to 99 nM
C[C@@H](c1ncc(-c2ccc(-c3ccc(-c4cnc([C@H](C)N(C)C(=O)[C@@H](c5ccccc5)N(C)C)[nH]4)cc3)cc2)[nH]1)N(C)C(=O)[C@@H](c1ccccc1)N(C)C [Example 24-18-2, (2R,2′R)-N,N′-(4,4′-biphenyldiylbis (1H-imidazole-5,2-diyl(1S)-1,1-ethanediyl))bis(2-(dimethylamino)-N-methyl-2-phenylacetamide)] | 0.001 to 0.999 nM
C[C@H](NC(=O)[C@@H](c1ccccc1)N(C)C)c1ncc(-c2ccc(-c3ccc(-c4cnc([C@@H]5CCCN5C(=O)[C@@H](c5ccccc5)N(C)C)[nH]4)cn3)cc2)[nH]1 [Example 152j-11, (2R)-2-(dimethylamino)-N-((1S)-1-(5-(4-(5-(2-((2S)-1-((2R)-2-(dimethylamino)-2-phenylacetyl)-2-pyrrolidinyl)-1H-imidazol-5-yl)-2-pyridinyl)phenyl)-1H-imidazol-2-yl)ethyl)-2-phenylacetamide] | 0.001 to 0.999 nM
